Test results as given in article doi:10.1101/2021.10.07.463234v2 (biorxiv, 2021).
Structures can show the parent of a compound that is named as a salt.

Each compound was assayed against SARS-CoV-2 Mac1 (Severe acute respiratory syndrome coronavirus 2, UniProt P0DTD1) (assay: biochemical). Settings: 100 µM; inhibitor.

Row | SMILES | %inhibition
1 | Cc1nnc(C(=O)NC(C)(C)c2nc(C(=O)NCc3ccc(F)cc3)c(O)c(=O)n2C)o1 [Raltegravir (MK-0518)] | 3.868%
2 | O=C(O)/C=C/c1ccc(Cn2ccnc2)cc1 [Ozagrel HCl] | 0%
3 | Nc1nc2[nH]cc(CCc3ccc(C(=O)N[C@@H](CCC(=O)O)C(=O)O)cc3)c2c(=O)[nH]1 [Pemetrexed] | 4.612%
4 | NC[C@H]1O[C@H](O[C@H]2[C@H](O)[C@@H](O[C@H]3O[C@H](CO)[C@@H](O)[C@H](N)[C@H]3O)[C@H](N)C[C@@H]2N)[C@H](N)C[C@@H]1O [Tobramycin sulfate] | 7.872%
5 | CN1c2ccccc2C(NCCCCCCC(=O)O)c2ccc(Cl)cc2S1(=O)=O (stereo not shown) [Tianeptine] | 12.39%
6 | CC[C@H]1OC(=O)[C@H](C)[C@@H](O[C@H]2C[C@@](C)(OC)[C@@H](O)[C@H](C)O2)[C@H](C)[C@@H](O[C@@H]2O[C@H](C)C[C@H](N(C)C)[C@H]2O)[C@](C)(O)C[C@@H](C)C(=O)[C@H](C)[C@@H](O)[C@]1(C)O [Erythromycin] | 0%
7 | Cc1cn(-c2cc(NC(=O)c3ccc(C)c(Nc4nccc(-c5cccnc5)n4)c3)cc(C(F)(F)F)c2)cn1 [Nilotinib hydrochloride] | 3.764%
8 | Cc1cccc(C)c1NC(=O)C1CCCCN1C (stereo not shown) [Mepivacaine HCl] | 2.617%
9 | C[C@@H](CN1CC(=O)NC(=O)C1)N1CC(=O)NC(=O)C1 [Dexrazoxane HCl (ICRF-187, ADR-529)] | 32.25%
10 | CCC(=O)NS(=O)(=O)c1ccc(-c2c(-c3ccccc3)noc2C)cc1 [Parecoxib Sodium] | 8.572%

Same assay, conditions: read-out: %inhibition

Row | SMILES | inhibition at 100 µM
11 | CC[C@H](C)C(=O)O[C@H]1C[C@H](O)C=C2C=C[C@H](C)[C@H](CC[C@@H](O)C[C@@H](O)CC(=O)O)[C@H]21 [Pravastatin sodium] | 28.2%
12 | CN1CCC[C@H]1c1cccnc1 [Nicotine Ditartrate] | 0%
13 | CCCCCCCCc1ccc(CCC(N)(CO)CO)cc1 [Fingolimod (FTY720) HCl] | 33%
14 | COC(=O)/C=C/C(=O)OC [Dimethyl Fumarate] | 23.8%
15 | Cc1c(F)cc(C(=O)NC2CC2)cc1-c1ccc(C(=O)NCC(C)(C)C)cn1 [Losmapimod (GW856553X)] | 0%
16 | CC(CCc1ccccc1)NCC(O)c1ccc(O)c(C(N)=O)c1 (stereo not shown) [Labetalol HCl] | 0%
17 | NC(=O)c1ncn([C@@H]2O[C@H](CO)[C@@H](O)[C@H]2O)c1O [Mizoribine] | 0%
18 | C[C@]12CC[C@@H]3c4ccc(OC(=O)c5ccccc5)cc4CC[C@H]3[C@@H]1CC[C@@H]2O [Estradiol Benzoate] | 20.5%
19 | O=C(NC[C@H]1CN(c2ccc(N3CCOCC3=O)cc2)C(=O)O1)c1ccc(Cl)s1 [Rivaroxaban] | 4.28%
20 | CS(=O)(=O)c1cccc(C[C@H](NC(=O)c2c(Cl)cc3c(c2Cl)CCN(C(=O)c2ccc4ccoc4c2)C3)C(=O)O)c1 [Lifitegrast] | 0%
21 | CN1CCN(C(c2ccccc2)c2ccccc2)CC1 [Cyclizine 2HCl] | 9.76%
22 | Clc1ccc(C(Cn2ccnc2)OCc2csc3c(Cl)cccc23)c(Cl)c1 (stereo not shown) [Sertaconazole nitrate] | 0%
23 | CCCN1CCCC[C@H]1C(=O)Nc1c(C)cccc1C [Ropivacaine] | 0%
24 | C[n+]1ccccc1/C=N/O [Pralidoxime chloride] | 8.15%
25 | CCn1cc(C(=O)O)c(=O)c2cnc(N3CCCC3)nc21 [Piromidic Acid] | 10.1%
26 | O=C(O)c1cc(-c2ccc(F)cc2F)ccc1O [Diflunisal] | 0.967%
27 | O=c1ccn([C@@H]2O[C@H](CO)[C@@H](O)[C@H]2O)c(=O)[nH]1 [Uridine] | 0%
28 | Cc1ccnc(NS(=O)(=O)c2ccc(N)cc2)n1 [Sulfamerazine] | 0%
29 | C=C1/C(=C\C=C2/CCC[C@]3(C)[C@@H]([C@H](C)/C=C/[C@H](C)C(C)C)CC[C@@H]23)C[C@@H](O)C[C@@H]1O [Doxercalciferol] | 0%
30 | Cc1c(OCC(F)(F)F)ccnc1C[S@@+]([O-])c1nc2ccccc2[nH]1 [Dexlansoprazole] | 13.9%

Row | SMILES | inhibition at 100 µM
31 | C=C[C@@H]1C[C@]1(NC(=O)[C@@H]1C[C@@H]2CN1C(=O)[C@H](C(C)(C)C)NC(=O)O[C@@H]1C[C@H]1CCCCCc1nc3ccc(OC)cc3nc1O2)C(=O)NS(=O)(=O)C1CC1 [Grazoprevir] | 0%
32 | O=C(O)C1=C(CSc2nnnn2CS(=O)(=O)O)CS[C@@H]2[C@H](NC(=O)[C@H](O)c3ccccc3)C(=O)N12 [Cefonicid sodium] | 0%
33 | C[C@]12C=CC(=O)C=C1CC[C@@H]1[C@@H]2[C@@H](O)C[C@@]2(C)[C@H]1CC[C@]2(O)C(=O)CO [Prednisolone] | 31%
34 | Cc1cnc(C(=O)O)c[n+]1[O-] [Acipimox] | 14%
35 | CCOc1cc([C@@H](CS(C)(=O)=O)N2C(=O)c3cccc(NC(C)=O)c3C2=O)ccc1OC [Apremilast (CC-10004)] | 0%
36 | Nc1ncn([C@@H]2O[C@H](CO)[C@@H](O)[C@H]2O)c(=O)n1 [Azacitidine] | 32.2%
37 | C[C@]12C=CC(=O)N[C@@H]1CC[C@@H]1[C@@H]2CC[C@]2(C)[C@@H](C(=O)Nc3cc(C(F)(F)F)ccc3C(F)(F)F)CC[C@@H]12 [Dutasteride] | 12%
38 | O=C(O)CCC(=O)Nc1ccc(S(=O)(=O)Nc2nccs2)cc1 [Succinylsulfathiazole] | 0%
39 | Nc1ncnc2c1ncn2[C@@H]1O[C@H](CO)[C@@H](O)[C@H]1O [Adenosine] | 0%
40 | CC(/C=C1\SC(=S)N(CC(=O)O)C1=O)=C\c1ccccc1 [Epalrestat] | 0%
41 | COc1ccc(-c2cc(=O)c3c(O)cc(O[C@@H]4O[C@H](CO[C@@H]5O[C@@H](C)[C@H](O)[C@@H](O)[C@H]5O)[C@@H](O)[C@H](O)[C@H]4O)cc3o2)cc1O [Diosmin] | 11.9%
42 | CCCCc1nc(C)c(CC(=S)N(C)C)c(=O)n1Cc1ccc(-c2ccccc2-c2nnn[nH]2)cc1 [Fimasartan] | 22.3%
43 | Cc1ccc(F)c(NC(=O)Nc2ccc(-c3cccc4[nH]nc(N)c34)cc2)c1 [Linifanib (ABT-869)] | 52.3%
44 | CN1CC(=O)N2[C@H](c3ccc4c(c3)OCO4)c3[nH]c4ccccc4c3C[C@@H]2C1=O [Tadalafil] | 20.7%
45 | CCC(=O)OCC(=O)[C@@]1(OC(=O)CC)[C@@H](C)C[C@H]2[C@@H]3CCC4=CC(=O)C=C[C@]4(C)[C@@]3(Cl)[C@@H](O)C[C@@]21C [Beclomethasone dipropionate] | 0%
46 | CN1CCC[C@@H]1Cc1c[nH]c2ccc(CCS(=O)(=O)c3ccccc3)cc12 [Eletriptan HBr] | 0%
47 | COc1ccc(CN2CCN(C(c3ccc(F)cc3)c3ccc(F)cc3)CC2)c(OC)c1OC [Lomerizine 2HCl] | 12.8%
48 | CCCCC(F)(F)[C@@]1(O)CC[C@H]2[C@@H](CC(=O)[C@@H]2CCCCCCC(=O)O)O1 [Lubiprostone] | 13.8%
49 | N[C@H]1C(O)O[C@H](CO)[C@@H](O)[C@@H]1O (stereo partly shown) [Glucosamine hydrochloride] | 0%
50 | Cc1ccc(O)c([C@H](CCN(C(C)C)C(C)C)c2ccccc2)c1 [Tolterodine tartrate] | 34.1%

Row | SMILES | inhibition at 100 µM
51 | C[C@]12CC[C@@H]3c4ccc(O)cc4C[C@@H](CCCCCCCCC[S+]([O-])CCCC(F)(F)C(F)(F)F)[C@H]3[C@@H]1CC[C@@H]2O (stereo partly shown) [Fulvestrant] | 1.46%
52 | CCC[C@H](N[C@@H](C)C(=O)N1[C@H](C(=O)O)C[C@@H]2CCCC[C@@H]21)C(=O)OCC [Perindopril Erbumine] | 5.79%
53 | C[C@@H]1CCO[C@H]2Cn3cc(C(=O)NCc4ccc(F)cc4F)c(=O)c(O)c3C(=O)N12 [Dolutegravir (GSK1349572)] | 9.9%
54 | COc1nc(C)cnc1NS(=O)(=O)c1cccnc1-c1ccc(-c2nnco2)cc1 [Zibotentan (ZD4054)] | 7.65%
55 | Cc1c(-c2ccnn2C)cc(C(=O)NCc2ccc(S(C)(=O)=O)cn2)c(=O)n1-c1cccc(C(F)(F)F)c1 [Alvelestat (AZD9668)] | 0%
56 | CC1=NN(c2ccccc2)C(=O)C1 [Edaravone] | 5.75%
57 | CCCCCCC(=O)O[C@H]1CC[C@H]2[C@@H]3CCC4=CC(=O)CC[C@]4(C)[C@H]3CC[C@]12C [Testosterone Enanthate] | 0%
58 | CC1(C)S[C@@H]2[C@H](NC(=O)[C@H](NC(=O)N3CCN(S(C)(=O)=O)C3=O)c3ccccc3)C(=O)N2[C@H]1C(=O)O [Mezlocillin Sodium] | 6.75%
59 | CC(C)NC[C@H](O)COc1ccc(CCOCC2CC2)cc1 [Levobetaxolol HCl] | 12.1%
60 | CCCCc1nc2cc(/C=C/C(=O)NO)ccc2n1CCN(CC)CC [Pracinostat (SB939)] | 3.38%
61 | Cc1cc(NC(=O)C2=C(O)c3ccccc3S(=O)(=O)N2C)no1 [Isoxicam] | 13.6%
62 | Clc1ccc(C(c2ccccc2Cl)C(Cl)Cl)cc1 (stereo not shown) [Mitotane] | 46.2%
63 | CN(C)N(C)C(=O)[C@@]1(Cc2ccccc2)CCCN(C(=O)[C@@H](Cc2c[nH]c3ccccc23)NC(=O)C(C)(C)N)C1 [Anamorelin] | 1.6%
64 | Nc1ccc(C(=O)O)c(O)c1 [Sodium 4-Aminosalicylate] | 0%
65 | OC[C@@H](O)[C@@H](O)[C@H](O)[C@H](O)CO [D-Mannitol] | 0%
66 | O=C1CC2(CCCC2)CC(=O)N1CCCCN1CCN(c2ncccn2)CC1 [Buspirone HCl] | 7.05%
67 | C[N+](C)(C)CCO [Choline Chloride] | 0%
68 | COCCOC(=O)C1=C(C)NC(C)=C(C(=O)OC/C=C/c2ccccc2)C1c1cccc([N+](=O)[O-])c1 (stereo not shown) [Cilnidipine] | 0%
69 | OC[C@@H](O)[C@H](O)[C@@H](O)CO [Xylitol] | 0%
70 | Cc1cn([C@H]2O[C@@H](CO)[C@H](O)[C@H]2F)c(=O)[nH]c1=O [Clevudine] | 18.3%
